Reference: patent publication US20080161307A1, “Organic Compounds” (priority 2005, published 2008)

Test system: healthy male volunteers
Assay: Randomized, double-blind, placebo-controlled gastric emptying study (99Tc radiolabeled meal, external scintigraphy)
Assay type: in vivo, human
Procedure: Methodology: This is a single center, double-blind, randomized, parallel group trial using a placebo control or tegaserod 6 mg t.i.d. in combination with omeprazole 20 mg b.i.d. Gastric emptying is assessed using a standardized method that has been previously validated and found to be sensitive and specific. After an overnight fast, the subjects are asked to ingest a standardized ^99Tc radiolabeled meal (250 ml EggBeater, the equivalent of two eggs, two slices of white bread, 30 cc of strawberry jam and 120 ml of water). The level of radioactivity in gastric contents is measured by external scintigraphy immediately following completion of the meal and then at 60, 120 and 240 minutes after the end of the meal.
Number of subjects: 40 healthy male volunteers (20 per group)
Investigational drug: Tegaserod 6 mg tablets (supplied by Novartis Canada, but are normal 6 mg Zelnorm tablet obtainable as prescription) for oral administration. Each dose consists of a tablet to be taken with a glass of water within 15-30 minutes before mealtime three times daily. […]
Efficacy: The primary efficacy parameter is time to half emptying (T1/2) of gastric contents. The secondary efficacy endpoints were the calculated lag phase, and percent of gastric contents remaining in the stomach at 60, 120 and 240 minutes after ingestion of a standard meal. […]

## CCCCCNC(=N)N/N=C/c1c[nH]c2ccc(OC)cc12 [tegaserod, 3-(5-methoxy-1H-indol-3-yl-methylene)-N-pentylcarbazimidamide]
Tegaserod 6 mg t.i.d. in combination with omeprazole 20 mg b.i.d., oral, 14 days
  gastric emptying at all the studied time points versus baseline: not statistically different from the respective baseline values
Tegaserod added to omeprazole, healthy male volunteers
  development of delayed gastric emptying caused by omeprazole: prevented development of delayed gastric emptying
